In US4298739A, “Novel carbostyril derivatives” (priority 1977, dated 1981):
“And” between values parts separate entries of the source, which are not always exact repeats. Identical values can stand only once.

How the values were obtained:
[1] = Concentration in blood of male Wister rats; assay type: in vivo; conditions: 30 mg/kg water suspension, 30 mg/kg; for Concentration in blood: Rat
Procedure: (§1) A water suspension of test compound was administered at the dose of 30 mg/kg to the overnight fasted male Wister rats and male beagle dogs, and after a predetermined period of time, blood was collected from said animals to obtain plasma. 2 to 3 Milliliters of 0.1 N-NaOH and 2 ml of CHCl3 were added to 1 ml of the obtained plasma, and the mixture was shaken and extracted in a shaker for 2 hours, and after centrifugal separation, the organic layer was washed with 2 ml of 0.1 N-HCl. This organic layer was then subjected to a freezing and thawing treatment, and after evaporating chloroform under nitrogen stream, the residue was redissolved in 100 μl of chloroform and spotted on a thin layer plate of "Silica Gel 60 F254 " manufactured by Merck & Co., Inc. This was developed in a chloroform: butanol mixed solvent (5:1) and determined by measuring the spots with same Rf value as the test compound according to the absorbance method by using Shimazu CS-910 Thin Layer Chromato-scanner,and therefrom the concentration (μg/ml) of test compound A in blood was determined.

[2] = Concentration in blood of male beagle dogs; assay type: in vivo; conditions: 30 mg/kg water suspension, 30 mg/kg; for Concentration in blood: Beagle dog
Procedure: as §1

**Q.** Which Concentration in blood ([1]; 1 hr., 60 min) does the source give for `CN(C(=O)CCCOc1ccc2[nH]c(=O)ccc2c1)C1CCCCC1` [compound 16, 6-[3-(N-Methyl-N-cyclohexylaminocarbonyl)propoxy]carbostyril] here?
**A.** 1060 ng/mL and 880 ng/mL

**Q.** And the Concentration in blood ([1]; 4 hr., 240 min)?
**A.** 710 ng/mL and 830 ng/mL

**Q.** And the Concentration in blood ([1]; 12 hr., 720 min)?
**A.** 730 ng/mL and 780 ng/mL

**Q.** And the concentration at 1 h ([1]; rat, plasma, 1 hr.)?
**A.** 900 ng/mL

**Q.** What about the concentration at 4 h ([1]; rat, plasma, 4 hr.) of the same compound?
**A.** 1100 ng/mL

**Q.** And the concentration at 12 h ([1]; rat, plasma, 12 hr.)?
**A.** 640 ng/mL

**Q.** And the Concentration in blood ([2]; 1 hr., 60 min)?
**A.** 130 ng/mL

**Q.** And the Concentration in blood ([2]; 2 hr., 120 min)?
**A.** 310 ng/mL

**Q.** What about the Concentration in blood ([2]; 6 hr., 360 min) of the same compound?
**A.** 210 ng/mL

**Q.** What about the Concentration in blood ([2]; 12 hr., 720 min) of the same compound?
**A.** 70 ng/mL

**Q.** And the concentration at 1 h ([2]; dog, plasma, 1 hr.)?
**A.** 230 ng/mL

**Q.** And the concentration at 2 h ([2]; dog, plasma, 2 hr.)?
**A.** 280 ng/mL

**Q.** What about the concentration at 6 h ([2]; dog, plasma, 6 hr.) of the same compound?
**A.** 110 ng/mL

**Q.** And the concentration at 12 h ([2]; dog, plasma, 12 hr.)?
**A.** 40 ng/mL
